Experimental data reported in patent US8937068B2, “Pyridopyrazine derivatives and their use” (Zentaris GmbH, priority 2005, dated 2015).

Tests used:
[1] = system: Jnk1 + Jnk2; assay: Cell-free kinase assay (ALPHA technology), Jnk1 + Jnk2; assay type: biochemical, human; details: 10 μM ATP
How it was run: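 Recombinant human GST- or His-tagged kinases were assayed for 1 h with ALPHA bead detection read after overnight standing. For PI3Kalpha: 1 ng enzyme, 100 μM ATP, 20 μM PIP2 in Hepes pH 7.4, detected by GST:Grp1/biotin-PIP3 competition. The p38alpha and Jnk assays followed the MAPK format (10 μM ATP, biotin-MBP, anti-phospho-MBP); IC50 from %-inhibition.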

[2] = system: BxPC3; assay: XTT assay, anti-proliferative effect, BxPC3; assay type: cell-based; details: Homo sapiens, BXPC-3; 45 h incubation
Description: The principle of this test is based on the intracellular reduction of the tetrazolium dye XTT (sodium 3′-[1-(phenylaminocarbonyl)-3,4-tetrazolium]-bis(4-methoxy-6-nitro)benzene sulfonic acid, Sigma) to a formazan dye by mitochondrial dehydrogenases. The dye is only formed by metabolically active cells and its photometrically measurable intensity is a quantitative indicator for the presence of living cells. The reduction of dye formation by incubation of the cells with substances serves as a parameter for the anti-proliferative effect.
The tumour cell lines (ATCC) were injected into 96-well microtitre plates in a defined cell number (5000 cells/well for BxPC3 and Hct116; 10000 cells/well for MDA MB468) and then incubated overnight in an incubator at 37° C., 5% CO2 and 95% air humidity. The test substances were prepared as stock solutions (10 mM) in DMSO. […] The cell plates were then incubated for 45 h in an incubator at 37° C., 5% CO2 and 95% air humidity.
For the detection reaction the substrate XTT was mixed with PMS (N-Methyl dibenzopyrazine methylsulfate, Sigma) and added to the cells so that a final concentration of 325 μg XTT/ml and 2.5 μg PMS/ml was obtained. It was then incubated for 3 h at 37° C., 95% air humidity. The formazan salt formed by the cellular dehydrogenases could then be quantified by adsorption at 490 nm.
The % inhibition value was evaluated by means of the following formula from the values for the optical densities measured in each case at 490 nm:
Eight determinations were made for each control and two for the substance samples. The 0% control contains no cells, the 100% control (proliferation control) contains no test substance. The EC50 values were determined using GraphPadPrism.

[3] = molecular target: Erk2 (Homo sapiens, UniProt P28482); assay: Cell-free kinase assay (ALPHA technology), Erk2; assay type: biochemical; details: 10 μM ATP
Sequence of Erk2 (P28482 2-360 limits assumed): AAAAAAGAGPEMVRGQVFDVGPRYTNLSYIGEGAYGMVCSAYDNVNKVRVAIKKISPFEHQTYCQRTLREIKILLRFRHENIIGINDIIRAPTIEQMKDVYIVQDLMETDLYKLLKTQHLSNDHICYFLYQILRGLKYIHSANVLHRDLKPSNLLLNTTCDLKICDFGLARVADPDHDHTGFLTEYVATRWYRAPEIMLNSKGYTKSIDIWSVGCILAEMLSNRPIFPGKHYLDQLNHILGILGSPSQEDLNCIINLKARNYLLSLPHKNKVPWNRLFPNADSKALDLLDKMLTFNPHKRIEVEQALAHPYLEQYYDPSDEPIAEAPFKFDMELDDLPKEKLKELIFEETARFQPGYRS
How it was run: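 Recombinant tagged Erk2 kinase reactions were stopped with ALPHA bead mix […]. The signal was read after standing overnight. Controls were run in eight replicates and compounds in duplicate, and IC50 was fitted.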

Compound | IC50 [1] [µM] | EC50 [2] [µM] | IC50 [3] [µM] | melting point
CCNC(=O)Nc1ccc2ncc(-c3ccc(O)c(OC)c3)nc2n1 [Compound 124, 1-Ethyl-3-[3-(4-hydroxy-3-methoxy-phenyl)-pyrido[2,3-b]pyrazin-6-yl]-urea] | 1 | 10 | 0.062 | –
O=C(NCCCCO)Nc1ccc2ncc(-c3ccccc3)nc2n1 [Compound 146, 1-(4-Hydroxy-butyl)-3-(3-phenyl-pyrido[2,3-b]pyrazin-6-yl)-urea] | 3.3 | > 50 | 0.155 | –
CCNC(=O)Nc1ccc2ncc(Nc3ccc(C)cc3)nc2n1 [Compound 150, 1-Ethyl-3-(3-p-tolylamino-pyrido[2,3-b]pyrazin-6-yl)-urea] | > 100 | 0.9 | 18.7 | –
C=CCNC(=S)Nc1ccc2ncc(-c3ccc(O)cc3)nc2n1 [Compound 30, 1-allyl-3-[3-(4-hydroxy-phenyl)-pyrido[2,3-b]pyrazin-6-yl]-thiourea] | 21.8 | 12 | 0.392 | 230 °C (dec.)
CCNC(=O)Nc1ccc2ncc(-c3ccc(O)c(OC)c3)nc2n1.Cc1ccc(S(=O)(=O)O)cc1 [Compound 183, 1-Ethyl-3-[3-(4-hydroxy-3-methoxy-phenyl)-pyrido[2,3-b]pyrazin-6-yl]-urea p-Toluolsulfonate] | 4.7 | – | 0.203 | –
CCNC(=O)Nc1ccc2ncc(-c3cnn(C)c3)nc2n1 [Compound 173, 1-Ethyl-3-[3-(1-methyl-1H-pyrazol-4-yl)-pyrido[2,3-b]pyrazin-6-yl]-urea] | 2.9 | – | 0.107 | –
